US9422285B2, “Substituted pyrazolo[1,5-A]-pyridine-3-carboxamides and use thereof” (Bayer Pharma Aktiengesellschaft, priority 2014, dated 2016)
Structures can show the parent of a compound that is named as a salt.

Target: T1, recombinant guanylate cyclase reporter cell line (Rattus norvegicus, UniProt P19686+P20595)
T1 construct: expressed in transfected cells
T1 sequence (P19686 1-690): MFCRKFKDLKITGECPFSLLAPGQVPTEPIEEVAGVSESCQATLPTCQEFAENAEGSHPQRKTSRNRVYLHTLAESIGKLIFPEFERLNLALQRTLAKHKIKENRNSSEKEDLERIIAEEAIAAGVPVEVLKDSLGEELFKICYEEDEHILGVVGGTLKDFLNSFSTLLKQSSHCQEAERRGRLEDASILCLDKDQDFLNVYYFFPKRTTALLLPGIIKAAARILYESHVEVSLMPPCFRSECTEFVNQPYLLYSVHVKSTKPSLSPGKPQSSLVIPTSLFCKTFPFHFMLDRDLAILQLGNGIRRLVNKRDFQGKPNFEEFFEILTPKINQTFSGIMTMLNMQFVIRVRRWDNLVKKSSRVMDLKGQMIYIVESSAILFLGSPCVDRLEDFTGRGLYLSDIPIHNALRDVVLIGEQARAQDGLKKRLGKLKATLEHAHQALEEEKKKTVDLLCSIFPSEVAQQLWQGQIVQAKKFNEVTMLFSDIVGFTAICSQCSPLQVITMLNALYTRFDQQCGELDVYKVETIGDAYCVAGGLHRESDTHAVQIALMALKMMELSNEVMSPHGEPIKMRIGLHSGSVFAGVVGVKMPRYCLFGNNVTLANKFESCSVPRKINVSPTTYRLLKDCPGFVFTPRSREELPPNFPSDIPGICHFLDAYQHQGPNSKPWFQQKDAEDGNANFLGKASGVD
T1 sequence (P20595 1-619): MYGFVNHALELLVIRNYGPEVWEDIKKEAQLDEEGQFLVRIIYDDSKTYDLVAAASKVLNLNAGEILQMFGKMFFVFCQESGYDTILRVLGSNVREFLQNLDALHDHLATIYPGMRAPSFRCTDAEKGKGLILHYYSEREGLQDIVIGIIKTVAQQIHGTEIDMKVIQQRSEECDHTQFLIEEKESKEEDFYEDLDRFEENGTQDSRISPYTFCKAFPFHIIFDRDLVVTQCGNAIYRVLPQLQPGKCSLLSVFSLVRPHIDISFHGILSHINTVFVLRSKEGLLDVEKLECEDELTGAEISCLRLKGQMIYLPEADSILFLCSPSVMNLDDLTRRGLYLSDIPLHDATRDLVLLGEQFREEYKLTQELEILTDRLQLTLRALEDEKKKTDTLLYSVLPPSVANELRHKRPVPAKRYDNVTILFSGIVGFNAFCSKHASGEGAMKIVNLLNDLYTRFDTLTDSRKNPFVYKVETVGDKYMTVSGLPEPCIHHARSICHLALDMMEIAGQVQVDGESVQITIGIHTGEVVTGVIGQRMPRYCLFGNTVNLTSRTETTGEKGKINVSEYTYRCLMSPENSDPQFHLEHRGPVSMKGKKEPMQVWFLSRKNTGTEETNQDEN
Experiment: Effect on a recombinant guanylate cyclase reporter cell line (B-2)
Assay type: cell-based
Conditions: in some cases mean values for individual determinations
Description: B-2. Effect on a Recombinant Guanylate Cyclase Reporter Cell Line
The cellular effect of the inventive compounds is determined using a recombinant guanylate cyclase reporter cell line, as described in F. Wunder et al., Anal. Biochem. 339, 104-112 (2005).
Representative MEC values (MEC=minimum effective concentration) for the inventive compounds are shown in the table below (in some cases as mean values for individual determinations): […]

SMILES	MEC (minimum effective concentration) [µM]
Cc1cc(OCc2c(F)cccc2F)n2nc(C)c(C(=O)NOCCO)c2c1 [Example 64, 7-[(2,6-Difluorobenzyl)oxy]-N-(2-hydroxyethoxy)-2,5-dimethylpyrazolo[1,5-a]pyridine-3-carboxamide trifluoroacetate]	3.0
C=CCONC(=O)c1c(C)nn2c(OCc3c(F)cccc3F)cc(C)cc12 [Example 65, N-(Allyloxy)-7-[(2,6-difluorobenzyl)oxy]-2,5-dimethylpyrazolo[1,5-a]pyridine-3-carboxamide trifluoroacetate]	3.0
Cc1cc(OCc2c(F)cccc2F)n2nc(C)c(C(=O)NNc3ccc(F)cc3)c2c1 [Example 66, 7-[(2,6-Difluorobenzyl)oxy]-N′-(4-fluorophenyl)-2,5-dimethylpyrazolo[1,5-a]pyridine-3-carbohydrazide trifluoroacetate]	0.3
Cc1cc(OCc2c(F)cccc2F)n2nc(C)c(C(=O)NNC(=O)CN(C)C)c2c1 [Example 67, 7-[(2,6-Difluorobenzyl)oxy]-N′-[(dimethylamino)acetyl]-2,5-dimethylpyrazolo[1,5-a]pyridine-3-carbohydrazide]	3.0
Cc1cc(OCc2c(F)cccc2F)n2nc(C)c(C(=O)NNC3CCCC3O)c2c1 (stereo not shown) [Example 68, 7-[(2,6-Difluorobenzyl)oxy]-N′-(2-hydroxycyclopentyl)-2,5-dimethylpyrazolo[1,5-a]pyridine-3-carbohydrazide trifluoroacetate]	10
Cc1cc(OCc2c(F)cccc2F)n2nc(C)c(C(=O)NC3Cc4ccccc4C3N)c2c1 (stereo not shown) [Example 70, N-(1-Amino-2,3-dihydro-1H-inden-2-yl)-7-[(2,6-difluorobenzyl)oxy]-2,5-dimethylpyrazolo[1,5-a]pyridine-3-carboxamide]	3.0
Cc1cc(OCc2c(F)cccc2F)n2nc(C)c(C(=O)N[C@H]3c4ccccc4C[C@H]3O)c2c1 [Example 71, 7-[(2,6-Difluorobenzyl)oxy]-N-[(1S,2R)-2-hydroxy-2,3-dihydro-1H-inden-1-yl]-2,5-dimethylpyrazolo[1,5-a]pyridine-3-carboxamide trifluoroacetate]	0.3
Cc1cc(OCc2c(F)cccc2F)n2nc(C)c(C(=O)Nc3ccnc4ccc(F)cc34)c2c1 [Example 80, 7-[(2,6-Difluorobenzyl)oxy]-N-(6-fluoroquinolin-4-yl)-2,5-dimethylpyrazolo[1,5-a]pyridine-3-carboxamide trifluoroacetate]	0.03
Cc1cc(OCc2c(F)cccc2F)n2nc(C)c(C(=O)NCC(F)(F)CN)c2c1 [Example 81, N-(3-Amino-2,2-difluoropropyl)-7-[(2,6-difluorobenzyl)oxy]-2,5-dimethylpyrazolo[1,5-a]pyridine-3-carboxamide]	1.0
Cc1cc(OCc2c(F)cccc2F)n2nc(C)c(C(=O)NCC(=O)NC3CC3)c2c1 [Example 89, N-[2-(Cyclopropylamino)-2-oxoethyl]-7-[(2,6-difluorobenzyl)oxy]-2,5-dimethylpyrazolo[1,5-a]pyridine-3-carboxamide]	3.0
Cc1cc(OCc2c(F)cccc2F)n2nc(C)c(C(=O)NC3(c4ccc(F)c(F)c4)CC3)c2c1 [Example 90, 7-[(2,6-Difluorobenzyl)oxy]-N[1-(3,4-difluorophenyl)cyclopropyl]-2,5-dimethylpyrazolo[1,5-a]pyridine-3-carboxamide]	0.1
Cc1cc(OCc2c(F)cccc2F)n2nc(C)c(C(=O)NCCN3CCN(C)CC3)c2c1 [Example 93, 7-[(2,6-Difluorobenzyl)oxy]-2,5-dimethyl-N-[2-(4-methylpiperazin-1-yl)ethyl]pyrazolo[1,5-a]pyridine-3-carboxamide]	10
CCCC[C@@H](C)NC(=O)c1c(C)nn2c(OCc3c(F)cccc3F)cc(C)cc12 [Example 94, 7-[(2,6-Difluorobenzyl)oxy]-N-[(2R)-hexan-2-yl]-2,5-dimethylpyrazolo[1,5-a]pyridine-3-carboxamide]	1.0
CC(=O)NCCNC(=O)c1c(C)nn2c(OCc3c(F)cccc3F)cc(C)cc12 [Example 96, N-(2-Acetamidoethyl)-7-[(2,6-difluorobenzyl)oxy]-2,5-dimethylpyrazolo[1,5-a]pyridine-3-carboxamide]	10
Cc1cc(OCc2c(F)cccc2F)n2nc(C)c(C(=O)N[C@@H]3CCNC3=O)c2c1 [Example 98, 7-[(2,6-Difluorobenzyl)oxy]-2,5-dimethyl-N-[(3R)-2-oxopyrrolidin-3-yl]pyrazolo[1,5-a]pyridine-3-carboxamide]	3.0
Cc1cc(OCc2c(F)cccc2F)n2nc(C)c(C(=O)NC3CC(C)(C)C3N)c2c1 (stereo not shown) [Example 101, N-(2-Amino-3,3-dimethylcyclobutyl)-7-[(2,6-difluorobenzyl)oxy]-2,5-dimethylpyrazolo[1,5-a]pyridine-3-carboxamide]	3.0
CCOC(=O)NCCNC(=O)c1c(C)nn2c(OCc3c(F)cccc3F)cc(C)cc12 [Example 106, Ethyl {2-[({7-[(2,6-difluorobenzyl)oxy]-2,5-dimethylpyrazolo[1,5-a]pyridin-3-yl}carbonyl)amino]ethyl}carbamate]	1.0
Cc1cc(OCc2c(F)cccc2F)n2nc(C)c(C(=O)NC3c4cccc(F)c4OC3C)c2c1 (stereo not shown) [Example 111, 7-[(2,6-Difluorobenzyl)oxy]-N-(7-fluoro-2-methyl-2,3-dihydro-1-benzofur-3-yl)-2,5-dimethylpyrazolo[1,5-a]pyridine-3-carboxamide]	1.0
Cc1cc(OCc2c(F)cccc2F)n2nc(C)c(C(=O)N[C@H]3C[C@H]4CN(C)CCN4C3)c2c1 [Example 113, 7-[(2,6-Difluorobenzyl)oxy]-2,5-dimethyl-N-[(7S,8aS)-2-methyloctahydropyrrolo[1,2-a]pyrazin-7-yl]pyrazolo[1,5-a]pyridine-3-carboxamide]	3.0
Cc1cc(OCc2c(F)cccc2F)n2nc(C)c(C(=O)NCC3(N)CC3)c2c1 [Example 118, N-[(1-Aminocyclopropyl)methyl]-7-[(2,6-difluorobenzyl)oxy]-2,5-dimethylpyrazolo[1,5-a]pyridine-3-carboxamide]	0.3
Cc1cc(OCc2c(F)cccc2F)n2nc(C)c(C(=O)NCCC(C)(C)N)c2c1 [Example 121, N-(3-Amino-3-methylbutyl)-7-[(2,6-difluorobenzyl)oxy]-2,5-dimethylpyrazolo[1,5-a]pyridine-3-carboxamide]	10
Cc1cc(OCc2c(F)cccc2F)n2nc(C)c(C(=O)NCC3(N)CCCCC3)c2c1 [Example 124, N-[(1-Aminocyclohexyl)methyl]-7-[(2,6-difluorobenzyl)oxy]-2,5-dimethylpyrazolo[1,5-a]pyridine-3-carboxamide]	0.3
Cc1cc(OCc2c(F)cccc2F)n2nc(C)c(C(=O)Nc3ccc(N4CCNCC4)c(C(F)(F)F)c3)c2c1 [Example 125, 7-[(2,6-Difluorobenzyl)oxy]-2,5-dimethyl-N-[4-(piperazin-l-yl)-3-(trifluoromethyl)phenyl]pyrazolo[1,5-a]pyridine-3-carboxamide]	3.0
Cc1cc(OCc2c(F)cccc2F)n2nc(C)c(C(=O)NC[C@@H]3CCCCN3)c2c1 [Example 129, 7-[(2,6-Difluorobenzyl)oxy]-2,5-dimethyl-N-[(2S)-piperidin-2-ylmethyl]pyrazolo[1,5-a]pyridine-3-carboxamide]	3.0
COC(=O)[C@@H](N)CCCCNC(=O)c1c(C)nn2c(OCc3c(F)cccc3F)cc(C)cc12 [Example 131, Methyl N^6-({7-[(2,6-difluorobenzyl)oxy]-2,5-dimethylpyrazolo[1,5-a]pyridin-3-yl}carbonyl)-L-lysinate]	3.0
